Test [1] deals with T1, novel non-AT1, non-AT2 angiotensin binding site (neurolysin) (Rattus norvegicus, UniProt P42676). The test can be described thus: Competition binding of 125I-Sar1,Ile8 Ang II in rat testis membranes. The conditions noted are these: for inhibition of 125I-SI Ang II binding in testis at concentrations up to 1 mM: rat testis.
A further test deals with neurolysin. The settings on record: read-out: KI for neurolysin; reported value; cited from earlier work.
The target in test [2] is T1, novel non-AT1, non-AT2 angiotensin binding site (neurolysin). The test is described as follows: Competition binding of 125I-Sar1,Ile8 Ang II in rat brain membranes. The conditions noted are these: for inhibition of 125I-SI Ang II binding in brain at concentrations up to 1 mM: rat brain.
Setting [3] is: listed as Proline-Isoleucine dipeptide.

Entries after “also recorded” stand apart in the source; their conditions may differ. Where a SMILES comes first, the peptide text is derived from it.

In general, IC50 refers to the concentration at which inhibition is half-maximal. A higher IC50 goes with lower potency. In general, Ki refers to a dissociation constant, usually derived from enzyme kinetics or from competition with a known ligand.

T1 sequence (P42676 38-704): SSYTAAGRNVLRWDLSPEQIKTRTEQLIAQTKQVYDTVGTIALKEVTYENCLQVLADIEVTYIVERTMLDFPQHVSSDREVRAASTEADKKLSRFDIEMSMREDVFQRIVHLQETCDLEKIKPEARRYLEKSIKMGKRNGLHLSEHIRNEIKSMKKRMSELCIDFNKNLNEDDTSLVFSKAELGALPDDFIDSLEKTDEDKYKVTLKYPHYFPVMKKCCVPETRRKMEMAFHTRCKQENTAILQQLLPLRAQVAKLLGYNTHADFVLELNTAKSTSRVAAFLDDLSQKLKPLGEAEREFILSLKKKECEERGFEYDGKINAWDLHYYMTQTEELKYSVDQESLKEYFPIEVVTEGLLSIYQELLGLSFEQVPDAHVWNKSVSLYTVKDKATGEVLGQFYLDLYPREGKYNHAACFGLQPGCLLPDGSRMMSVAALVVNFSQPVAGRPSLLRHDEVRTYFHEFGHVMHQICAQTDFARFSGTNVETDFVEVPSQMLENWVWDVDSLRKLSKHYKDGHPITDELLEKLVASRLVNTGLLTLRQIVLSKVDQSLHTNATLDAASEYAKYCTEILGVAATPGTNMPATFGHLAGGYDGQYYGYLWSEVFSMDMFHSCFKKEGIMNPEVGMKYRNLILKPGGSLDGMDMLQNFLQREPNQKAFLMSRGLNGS

`CC[C@H](C)[C@H](NC(=O)[C@H](CCCN=C(N)N)NC(=O)[C@H](CCCN=C(N)N)NC(=O)[C@H](CC(C)C)NC(=O)[C@H](Cc1ccccc1)NC(=O)CNC(=O)CNC(=O)[C@@H](N)Cc1ccc(O)cc1)C(=O)O` [Dynorphin A (1–8)]: the IC50 in test [1] was found to be 2200 nM.
With `CC[C@H](C)[C@H](NC(=O)[C@@H]1CCCN1)C(=O)O` [Pro-Ile, proline-isoleucine dipeptide] (H-Pro-Ile-OH), the “inhibition of 125I-SI Ang II binding in testis at concentrations up to 1 mM” value in test [1] is “no inhibition; also recorded: failed to inhibit; also recorded: did not inhibit”; in test [1] (setting [3]) it was “inactive”. Besides, the Ki on neurolysin was 90000 nM. The results for the “inhibition of 125I-SI Ang II binding in brain at concentrations up to 1 mM” value in test [2] and in test [2] (setting [3]) were “no inhibition; also recorded: failed to inhibit; also recorded: did not inhibit” and “inactive”, respectively.
For the molecule `CC[C@H](C)[C@H](NC(=O)[C@@H]1CCCN1C(=O)[C@H](Cc1c[nH]cn1)NC(=O)[C@@H](NC(=O)[C@H](Cc1ccc(O)cc1)NC(=O)[C@@H](NC(=O)[C@H](CCCN=C(N)N)NC(=O)CNC)C(C)C)[C@@H](C)CC)C(=O)O` [SI Ang II, Sar^1, Ile^8 angiotensin II], the IC50 in test [1] (IC50 in testis, rat testis membranes, Figure 1 Panel A) was 126 nM; in test [2] (IC50 in brain, rat brain membranes, Figure 1 Panel A), 82.2 nM.

(Values after paper PMC3742649 (Endocrine, 2013).)
